According to US8569501B2, “Semiconductor materials and methods of preparation and use thereof” (BASF SE, priority 2008, dated 2013):
≈ marks a conversion by molar mass, not a printed value.

Experiment: Solubility in organic solvents
Type: physicochemical
Details: in dichlorobenzene at 60° C.
From the text: All of the mono-bromo mono-cyano perylenes and dimeric perylenes are sufficiently soluble for processing in conventional organic solvents such as chloroform, xylene, dichlorobenzene, and anisole.

Solubility [µg/mL] | SMILES
33900 (≈ 25.5 mM) | CCCCC(C)N1C(=O)c2ccc3c4c(-c5ccc(-c6ccc(-c7cc8c9c(ccc%10c%11c(C#N)cc%12c%13c(ccc(c7c9%10)c%13%11)C(=O)N(C(C)CCCC)C%12=O)C(=O)N(C(C)CCCC)C8=O)s6)s5)cc5c6c(ccc(c7c(C#N)cc(c2c37)C1=O)c64)C(=O)N(C(C)CCCC)C5=O (stereo not drawn) [BPDI(1MP)-BT, 5,5′-bis-[N,N′-bis(1-methylpentyl)-1-cyanoperylene-3,4:9,10-bis(dicarboxiimide)-7-yl]-2,2′-bithiophene]
5500 (≈ 3.81 mM) | CCCCC(CC)CN1C(=O)c2ccc3c4c(-c5ccc(-c6ccc(-c7cc8c9c(ccc%10c%11c(C#N)cc%12c%13c(ccc(c7c9%10)c%13%11)C(=O)N(CC(CC)CCCC)C%12=O)C(=O)N(CC(CC)CCCC)C8=O)s6)s5)cc5c6c(ccc(c7c(C#N)cc(c2c37)C1=O)c64)C(=O)N(CC(CC)CCCC)C5=O (stereo not drawn) [BPDI(2EH)-BT, 5,5′-bis-[N,N′-bis(2-ethylhexyl)-1-cyanoperylene-3,4:9,10-bis(dicarboxiimide)-7-yl]-2,2′-bithiophene]
7800 (≈ 5.41 mM) | CCCCCCCCN1C(=O)c2ccc3c4c(-c5ccc(-c6ccc(-c7cc8c9c(ccc%10c%11c(C#N)cc%12c%13c(ccc(c7c9%10)c%13%11)C(=O)N(CCCCCCCC)C%12=O)C(=O)N(CCCCCCCC)C8=O)s6)s5)cc5c6c(ccc(c7c(C#N)cc(c2c37)C1=O)c64)C(=O)N(CCCCCCCC)C5=O [BPDI(8)-BT, 5,5′-bis-[N,N′-bisoctyl-1-cyanoperylene-3,4:9,10-bis(dicarboxiimide)-7-yl]-2,2′-bithiophene]
